Literature values as cited in article PMC4153342 (Vaccine, 2014).

System: HLA-A2 on TAP-deficient/HLA-A2+ T2 cells
Details: previously reported

Sequence | affinity for HLA-A2 in vitro
MTFGRLQGI [p99] | have affinity for HLA-A2
RLQGISPKI [p103] | have affinity for HLA-A2
KASEKIFYV [p41] | have affinity for HLA-A2
AMTKLGFKA [p57] | have affinity for HLA-A2
